Where “and” joins values, the source holds several entries; their conditions need not be identical. Equal entries are not always repeated.
How the values were obtained:
carageenan-induced edema = assay: inhibition of carrageenan-induced edema; type: in vivo, male Wistar rat; conditions: oral
Method: The inflammation is produced in the male Wistar rat by injection of 0.1 ml of a 0.5% suspension of carageenan in physiological serum, into the muscular fascia of the metatarsal region of the hind foot of the animal. The test substance is administered orally at the same time as the carageenan or 30 or 60 min before carageenan. The edema is measured by plethysmometry three hours after the adminstration of the carrageenan.

phenylbenzoquinone (PBQ) = assay: analgesic activity, phenylbenzoquinone (PBQ) challenge; type: in vivo; conditions: male Swiss mouse, oral; for ED50: method of Lichfield and Wilcoxon
Method: The analgesic activity was determined in the male Swiss mouse using phenylbenzoquinone (PBQ) as the challenging agent (variation of the method of Siegmund et al, Proc. Soc. Exp. Biol. Med. […], 95, 729-31). […] The ED50 was determined by the method of Lichfield and Wilcoxon.

solubility in water = type: physicochemical
[1] = system: carrageenan-induced granulomas; assay: activity on carrageenan-induced granulomas; type: in vivo, Male Wistar rats
Method: Male Wistar rats weighing 130 to 150 grams were given a subcutaneous injection in the central part of the skin of the back of 0.5 ml of an aqueous suspension of carrageenan. Two doses of the test substance are administered, one 30 minutes before and the other 6 hours after carrageenan. At the end of 24 hours the rats were sacrificed and the granulomas were removed and weighed before and after drying for 24 hours at 50° C. The difference in weight of the granulomas wet and dry represents the exudate
These AD50 are respectively 175(142-215) and 175(150-205) mg/kg.

[2] = oral toxicity (mortality) in the mouse; conditions: in vivo, Swiss mice
Method: The percentages of mortality produced by the compounds of this invention when administered orally to Swiss mice are shown in Table 1. The animals, free from specific pathogenic organisms were housed in an air conditioned room for 24 to 48 hours before the start of the experiment. They were separated into groups of 5 males and 5 females. The materials were administered to animals which had been fasted for 24 hours by means of a gastric tube in suspension in a 6% thickened julep using a volume equivalent to 0.1 ml per 10 g of body weight. […] They remained under observation for two weeks before being sacrificed and autopsied.

cotton pellet granulomas = assay: inhibition of cotton pellet granulomas; type: in vivo, male Sprague-Dawley rats; conditions: oral, daily for 10 days
Method: Two cotton pellets weighing 70 mg were implanted under the back skin of male Sprague-Dawley rats anesthetized with ether. Starting the next day, the compound was administered orally daily for 10 days. The rats were sacrificed and the pellets were removed and weighed before and after drying at 50° C. for 24 hours. The weights used were those obtained after deduction of the weight of the implants. The average of the quantities so calculated was determined for each group and compared to the averages of the control group.

stomachs = assay: ulcerogenic activity; type: in vivo, female Wistar rat
Method: The ulcerogenic activity was determined in the female Wistar rat using a variation of the procedure described by J. M. Lwoff, J. Pharmacol. 1971, 3, 1, 81-3. The test substance was administered daily for 3 days to the animals maintained on a aqueous diet. The stomachs were removed after 1, 2, and 3 days of treatment and the ulcerations were classified from 0 to 4. The ulceration index is calculated for each group of animals as the product (average of the classes x the percentage of animals afflicted), while distinguishing acute ulcerations from ulcers which were in the process of healing.

blood sugar level = assay: antidiabetic activity, blood sugar level in streptozotocin hyperglycemic rats; type: in vivo, Female rats; set-up: key: NS: the difference between the blood sugar level in the treated animals and the control animals is not significant; the difference is significant by Student's test at p≤0.05; conditions: oral
Method: Female rats weighing 180-200 grams were given an intraperitoneal dose on day J0 of 100 mg/kg of streptozotocin in a 0.05 M citrate buffer at a pH of 4.5 calculated as 0.5 ml per 100 g of body weight. On day J2 hyperglycemic animals were selected by determining the blood sugar level by the orthotoludine method in a stream continuously removed from the retroorbital sinus. […] On day J3, without previous fasting, the selected animals received the treatment. This consisted of oral administration of the test compound in a 6% aqueous suspension of gum arabic at a volume of 0.5 ml per 100 g of body weight.
The animals were sacrificed one, two, or four hours after the treatment and their blood sugar levels were determined. Each group of animals was compared to a control group of animals which received only the suspension of gum arabic. Metformin was the substance chosen as the control.
The results are given in Table 8 which indicates the percentage of decrease in the blood sugar level produced by the treatment.

## CC(=O)Oc1ccccc1C(=O)O [Aspirin, reference compound]
carageenan-induced edema; at To, 75 mg/kg
  % inhibiting activity on carrageenan-induced edema: 40%
carageenan-induced edema; at To, 150 mg/kg
  % inhibiting activity on carrageenan-induced edema: 46%
carageenan-induced edema; at To, 300 mg/kg
  % inhibiting activity on carrageenan-induced edema: 68%
carageenan-induced edema; at To, 450 mg/kg
  % inhibiting activity on carrageenan-induced edema: 64%

## C(=Nc1ccc2c(c1)OCO2)c1cccs1 [Example 1, N-thienylidene-5-aminobenzodioxole-1,3]
Phenylbenzoquinone (PBQ); 100 mg/kg
  % analgesic activity: 34%
Phenylbenzoquinone (PBQ); 125 mg/kg
  % analgesic activity: 43%
Phenylbenzoquinone (PBQ); 150 mg/kg
  % analgesic activity: 69%
Phenylbenzoquinone (PBQ); 200 mg/kg
  % analgesic activity: 73%
Phenylbenzoquinone (PBQ)
  ED50: 130 mg/kg
carageenan-induced edema; at To (same time as carrageenan), 25 mg/kg
  % inhibiting activity on carrageenan-induced edema: 19%
carageenan-induced edema; at To, 50 mg/kg
  % inhibiting activity on carrageenan-induced edema: 41%
carageenan-induced edema; at To, 100 mg/kg
  % inhibiting activity on carrageenan-induced edema: 52%
carageenan-induced edema; at To, 200 mg/kg
  % inhibiting activity on carrageenan-induced edema: 56%
carageenan-induced edema; at To, 400 mg/kg
  % inhibiting activity on carrageenan-induced edema: 58%
Solubility in water
  solubility in water: insoluble in water
[1]; 200 mg/kg administered twice
  Exudate, % activity: 6%
  Exudate, % animals 30% protected: 12.5%
  Weight of dry granuloma, % activity: 1%
  Weight of dry granuloma, % animals 30% protected: 12.5%
  Weight of wet granuloma, % activity: 6%
  Weight of wet granuloma, % animals 30% protected: 12.5%
[2]; 1000 mg/kg
  mortality at 336 h: 0%
[2]; 1500 mg/kg
  mortality at 336 h: 20%
[2]; 2000 mg/kg
  mortality at 336 h: 60%
[2]; 3000 mg/kg
  mortality at 336 h: 70%

## Cc1ccsc1C=Nc1ccc2c(c1)OCO2 [Example 4, N-(3-methyl-2-thienylidene)-5-aminobenzodioxole-1,3]
Cotton pellet granulomas; dose 150
  % inhibition with respect to dry pellets: 10%
  % inhibition with respect to wet pellets: 13%
Cotton pellet granulomas; dose 300
  % inhibition with respect to dry pellets: 19%
  % inhibition with respect to wet pellets: 14%
stomachs; 150 mg/kg daily, Day 1
  Ulceration Index, acute: 0
  Ulceration Index, healing: 0
stomachs; 150 mg/kg daily, Day 2
  Ulceration Index, acute: 0
  Ulceration Index, healing: 8
stomachs; 150 mg/kg daily, Day 3
  Ulceration Index, acute: 72
  Ulceration Index, healing: 16
Phenylbenzoquinone (PBQ); 75 mg/kg
  % analgesic activity: 21%
Phenylbenzoquinone (PBQ); 100 mg/kg
  % analgesic activity: 40%
Phenylbenzoquinone (PBQ); 150 mg/kg
  % analgesic activity: 37%
Phenylbenzoquinone (PBQ); 200 mg/kg
  % analgesic activity: 62%
Phenylbenzoquinone (PBQ); 300 mg/kg
  % analgesic activity: 67%
Phenylbenzoquinone (PBQ)
  ED50: 170 mg/kg
carageenan-induced edema; at To, 75 mg/kg
  % inhibiting activity on carrageenan-induced edema: 35%
carageenan-induced edema; at To, 150 mg/kg
  % inhibiting activity on carrageenan-induced edema: 35%
carageenan-induced edema; at To, 300 mg/kg
  % inhibiting activity on carrageenan-induced edema: 68%
Solubility in water
  solubility in water: insoluble in water
[1]; 100 mg/kg administered twice
  Exudate, % activity: 21%
  Exudate, % animals 30% protected: 38%
  Weight of dry granuloma, % activity: 16%
  Weight of dry granuloma, % animals 30% protected: 31%
  Weight of wet granuloma, % activity: 20.5%
  Weight of wet granuloma, % animals 30% protected: 38%
[1]; 200 mg/kg administered twice
  Exudate, % activity: 34.5%
  Exudate, % animals 30% protected: 71%
  Weight of dry granuloma, % activity: 31%
  Weight of dry granuloma, % animals 30% protected: 64%
  Weight of wet granuloma, % activity: 34%
  Weight of wet granuloma, % animals 30% protected: 71%
[1]; 300 mg/kg administered twice
  Exudate, % activity: 44.5%
  Exudate, % animals 30% protected: 75%
  Weight of dry granuloma, % activity: 42.5%
  Weight of dry granuloma, % animals 30% protected: 67%
  Weight of wet granuloma, % activity: 44.5%
  Weight of wet granuloma, % animals 30% protected: 75%
[2]; 750 mg/kg
  mortality at 336 h: 10%
[2]; 1000 mg/kg
  mortality at 336 h: 10%
[2]; 1500 mg/kg
  mortality at 336 h: 60%
[2]; 1750 mg/kg
  mortality at 336 h: 20%
[2]; 2000 mg/kg
  mortality at 336 h: 20%

## CN(C)C(=N)N=C(N)N [Metformin, reference compound]
Blood sugar level; 200 mg/kg, treatment 1 h before sacrificing
  Percentage Decrease in the Blood Sugar: NS
Blood sugar level; 200 mg/kg, treatment 2 h before sacrificing
  Percentage Decrease in the Blood Sugar: NS
Blood sugar level; 200 mg/kg, treatment 4 h before sacrificing
  Percentage Decrease in the Blood Sugar: NS
Blood sugar level; 400 mg/kg, treatment 1 h before sacrificing
  Percentage Decrease in the Blood Sugar: 14%
Blood sugar level; 400 mg/kg, treatment 2 h before sacrificing
  Percentage Decrease in the Blood Sugar: NS
Blood sugar level; 400 mg/kg, treatment 4 h before sacrificing
  Percentage Decrease in the Blood Sugar: 15%

## O=C(O)c1cccnc1Nc1cccc(C(F)(F)F)c1 [Niflumic Acid, reference compound]
Cotton pellet granulomas; dose 50
  % inhibition with respect to dry pellets: 12%
  % inhibition with respect to wet pellets: 3%
stomachs; 100 mg/kg daily, Day 1
  Ulceration Index, acute: 330
  Ulceration Index, healing: 0
stomachs; 100 mg/kg daily, Day 2
  Ulceration Index, acute: 1
  Ulceration Index, healing: 400
stomachs; 100 mg/kg daily, Day 3
  Ulceration Index, acute: 119
  Ulceration Index, healing: 378
carageenan-induced edema; at To, 75 mg/kg
  % inhibiting activity on carrageenan-induced edema: 37%
carageenan-induced edema; at To, 100 mg/kg
  % inhibiting activity on carrageenan-induced edema: 27%
carageenan-induced edema; at To, 125 mg/kg
  % inhibiting activity on carrageenan-induced edema: 40%
carageenan-induced edema; at To, 150 mg/kg
  % inhibiting activity on carrageenan-induced edema: 37% and 59%
[1]; 25 mg/kg administered twice
  Exudate, % activity: 42.5%
  Exudate, % animals 30% protected: 100%
  Weight of dry granuloma, % activity: 41.5%
  Weight of dry granuloma, % animals 30% protected: 87%
  Weight of wet granuloma, % activity: 42.5%
  Weight of wet granuloma, % animals 30% protected: 100%

Source: patent publication US4333938A, “Imino derivatives of 5-aminobenzodioxole-1,3 which are useful as medicaments” (Laboratoires Sarget, priority 1979, dated 1982)
